Results reported in US11400160B2, “Multifunctional conjugates” (E.P.O.S IASIS Research and Development Limited, priority 2017, dated 2022).
pEC50, pIC50: −log10 of the molar value. Entries after “also recorded” stand apart in the source; their conditions may differ. Read-outs that look alike come from different tables or passages of the source.

Columns and labels:
[1] = system: primary human osteoblast cultures; assay: Osteoblast mineralization (alizarin red, calcium in cell layer); format: cell-based; details: up to 15 days, osteo-inductive conditions; compared to free BP; alizarin red and calcium; FIG. 6
Protocol: The effect of free γToc and BP-γToc treatment on osteoblast function, using mineralized bone nodule-forming primary human osteoblast cultures was investigated.
Osteoblasts harvested from human donors at the time of joint replacement surgery were cultured up to 15 days in serum-containing medium under osteo-inductive conditions.

[2] = Binding to pre-loaded bone slices / hydroxyapatite after washing; details: pre-loaded whale dentine or osteologic slides, unbound drug washed away
Excerpt: In a separate experiment, pre-loaded bone slices (whale dentine) or commercial forms of hydroxyapatite (osteologic slides) with either free γ-tocopherol (γToc) or γ-tocopherol-bpp(OEt) (BP-γToc) and then washed away unbound drug.

mouse neonatal calvariae = assay: Calvarial organotypic bone growth assay (ex vivo); parameters: species or system mouse (Balb/c); details: ex vivo culture 10 days, FIG. 7; for bone formation in calvariae: above free BP or untreated
Protocol: Anexvivo model of cultured mouse neonatal calvariae to assess bone anabolic activity of each compound was performed as previously described by Garrett, I et al., (Methods Mol Med, 2003. 80: p. 183-198).
Briefly fifteen newborn, 4 day old Balb/c pubs were used for these experiments. Calvarial bones were dissected under sterile conditions and placed on sterile grids in 12 well plates containing culture media. Calvarial bones were cultured for 10 days in the presence of free γToc, BP-γToc or free BP. Bone morphogenetic protein 2 (BMP-2) was used as a positive control, with known bone anabolic activity in this assay.
Treatments were carried out in quadruplicate as shown below. Calvarial bones were embedded in paraffin wax and sections were stained with haematoxylin and eosin stain (H&E) and analysed using the nanozoom image analysis software.
• Untreated • Bpp(OEt) (BP) (15 μM) • BP (20 μM) • γ-Tocotrienol (15 μM) • γ-Tocotrienol (20 μM) • γ-Tocotrienol (100 μM) • BP-γ-tocotrienol conjugate (15 μM) • BP-γTocotrienol conjugate (20 μM) • BP-γ-Tocotrienol conjugate (100 μM) • BMP-2 (50 ng/ml)
New bone formation in treated calvariae was assessed by histological assessment of stained sections.

[3] = system: mature osteoclasts isolated from human Giant Cell Tumours (GCT) of bone; assay: Bone resorption by mature osteoclasts from Giant Cell Tumours of bone; format: cell-based; details: osteoclasts from human GCT of bone on whale dentine, 5 days
Excerpt: Human peripheral blood mononuclear cells (PBMCs) and the RAW264.7 murine monocytic cell line were differentiated into osteoclast-like cells in the presence of RANKL plus M-CSF and have been used as model systems of osteoclastogenesis. Osteoclast-like cells, from Giant Cell Tumours (GCT) of bone specimens from three independent donors were used to investigate the effect of compounds of the invention on the bone resorbing activity of mature osteoclasts.
To determine the effect of compounds of the invention on bone resorbing activity of mature osteoclast, cultured cells isolated from primary human Giant Cell Tumours of bone specimens were used. These cells were plated on whale dentine slices in 96-well plates at a density of 1×10^5/well and treated for 5 days with increasing concentrations of compounds of the invention. Medium and treatments were replaced on day three and pit formation determined on day 5.
Whale dentine slices will be washed in extran, rinsed with distilled water, washed in 70% ethanol and dried overnight. […] Images will be analysed using ImageQuant software and the area of resorption determined for each dentine slice (quadruplicate dentine slices for each treatment). Results are expected to be average resorption area +/− standard errors of the mean (SEM) and the significant differences between treatments will be determined using Students t-tests (2-tailed, unpaired).

MCF-7 cells = assay: Cell viability, crystal violet colorimetric assay; format: cell-based; details: 72 hrs; for pIC50: tested at 0.02-0.1 mM, unstarred values
Protocol: (§1) Immortalised osteolytic metastatic breast cancer cell lines, a) hormone-dependent MCF-7 and b) hormone refractory MDA-MB231, together with the daughter line MDA-MB231TXSA were incubated with 5 gradual concentrations of compounds of the invention as described below. Cell viability was assessed with the crystal violet colorimetric assay and IC50s were evaluated.
(§2) Medium was removed from cell cultures and cells were fixed with 4% v/v formaldehyde for 5 mins at room temperature. Formalin was then removed and CV added for 10 mins at room temperature followed by several washes with dsH2O. Samples were allowed to dry overnight. The following day, 10% acetic acid was added for 15 mins and optical density at 620 nm was measured. Optical densities versus compound concentrations were plotted in graphs and IC50s estimated by linear regression analysis using the WorkOut (VictorX4) software.
MCF-7, MDA-MB231 and MDA-MB231TXSA cells were seeded in 96-well-plates and allowed to attach overnight. […]
(§3) Cells were cultured in the presence of the compounds for 72 hrs and viability was assessed on day 3 by crystal violet assay. The cell lines were selected for their high bone metastatic potential. The fluorescently transfected line MB231TXSA, derived from line MB231 is also used in animal studies (WP7).

MDA-MB231TXSA cells = assay: Cell viability, crystal violet colorimetric assay; format: cell-based; details: 72 hrs; for pIC50: tested at 0.02-0.1 mM, read-out: IC50 values MB231-TXSA
Protocol: as §1, §2
(§4) MCF-7, MDA-MB231 and MDA-MB231TXSA cells were seeded in 96-well-plates and allowed to attach overnight. The following day media were replaced with fresh media containing the following compounds: Both free tetraethyl methylbisphosphonate (bpp(OEt)) and bpp(OEt) in 1:1 combination with the free chromanol and the biphosphonate conjugates were tested at 5 gradual concentrations of: 0.02, 0.04, 0.06, 0.08 and 0.1 mM.
as §3

MDA-MB231 cells = assay: Cell viability, crystal violet colorimetric assay; format: cell-based; details: 72 hrs; for pIC50: tested at 0.02-0.1 mM
Protocol: as §1, §2, §4, §3

CCOP(=O)(OCC)C(CCC(=O)Oc1cc2c(c(C)c1C)OC(C)(CCCC(C)CCCC(C)CCCC(C)C)CC2)P(=O)(OCC)OCC (stereo not drawn) [γ-toc-bpp(OEt), γ-tocopheryl bisphosphonic ester]
matrix-containing mineralized nodules in osteoblast cultures [1]: progressively increased matrix-containing mineralized nodules | binding to bone substrate / bone mineral [2]: selectively bound the substrate | bone formation compared with free γToc and BMP-2 positive control (mouse neonatal calvariae; listed as BP-γToc): far superior to the free γToc; also recorded: even greater than that seen with the BMP-2 positive control | bone formation in calvariae (mouse neonatal calvariae): significantly increased bone formation | bone resorption by already mature osteoclasts [3]: inhibited bone resorption | pIC50 (MCF-7 cells; Exp.1): 3.94 | pIC50 (MCF-7 cells; Exp.2): 4.09 | pIC50 (MDA-MB231TXSA cells; Exp.1): 4.10 | pEC50 (MDA-MB231TXSA cells; Exp.2, * denotes EC50 value, read-out: EC50 value (starred) MB231-TXSA): 3.72 | pIC50 (MDA-MB231 cells; Exp.1, unstarred values): 3.90 | pIC50 (MDA-MB231 cells; Exp.2): 4.30

Cc1c(O)cc2c(c1C)O[C@](C)(CCC[C@H](C)CCC[C@H](C)CCCC(C)C)CC2 [γ-toc, γ-tocopherol, reference compound]
matrix-containing mineralized nodules in osteoblast cultures [1]: progressively increased matrix-containing mineralized nodules | binding to bone substrate / bone mineral [2]: not | bone formation in calvariae (mouse neonatal calvariae): significantly increased bone formation | bone resorption by already mature osteoclasts [3]: inhibited bone resorption | pEC50 (MCF-7 cells; Exp.1, * denotes EC50 value, read-out: EC50 value (starred) MCF-7): 3.36 | pIC50 (MCF-7 cells; Exp.2): 3.89 | pIC50 (MDA-MB231TXSA cells; Exp.1): 4.01 | pIC50 (MDA-MB231TXSA cells; Exp.2, unstarred values): 3.63 | pEC50 (MDA-MB231 cells; Exp.1, * denotes EC50 value, read-out: EC50 value (starred) MB231): 3.51 | pIC50 (MDA-MB231 cells; Exp.2): 4.25
